Key:
MLLT1 = molecular target: T1, MLLT1 (Homo sapiens, UniProt Q03111); assay: MLLT1 degradation assay in MV4-11 cells (JESS chemiluminescent detection), three concentrations, 24 h; type: cell-based; conditions: with respect to DMSO control
T1 construct: host or cells: MV4-11
T1 sequence (Q03111 1-559): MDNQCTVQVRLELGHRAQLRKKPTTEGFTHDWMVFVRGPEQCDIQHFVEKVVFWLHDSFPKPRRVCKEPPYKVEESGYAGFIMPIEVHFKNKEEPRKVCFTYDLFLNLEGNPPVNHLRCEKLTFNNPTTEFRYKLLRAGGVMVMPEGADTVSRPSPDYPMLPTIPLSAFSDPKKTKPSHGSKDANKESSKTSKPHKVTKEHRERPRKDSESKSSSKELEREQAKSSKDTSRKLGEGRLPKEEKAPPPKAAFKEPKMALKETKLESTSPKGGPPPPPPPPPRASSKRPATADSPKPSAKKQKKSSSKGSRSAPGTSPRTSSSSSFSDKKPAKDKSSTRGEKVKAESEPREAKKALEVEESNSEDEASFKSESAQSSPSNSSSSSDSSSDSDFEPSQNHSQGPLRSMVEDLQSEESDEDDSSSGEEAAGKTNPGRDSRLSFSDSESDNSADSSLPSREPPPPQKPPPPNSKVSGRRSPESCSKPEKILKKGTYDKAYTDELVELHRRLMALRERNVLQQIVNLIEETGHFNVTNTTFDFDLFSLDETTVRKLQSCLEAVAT
How it was run: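 MV4-11 cells treated 24 h at 37° C, 5% CO2 with 1000, 100 and 10 nM compound (0.1% DMSO final). MLLT1 quantified by automated capillary chemiluminescent immunodetection; band peak area expressed as % degradation relative to DMSO control.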

MV4-11 cells = assay: MV4-11 cellular proliferative assay, Assay Format B (CTG 2.0, 168 h); type: cell-based; conditions: Homo sapiens, 168 h (7 days), CTG 2.0, read-out: IC50 (MV4-11 cellular proliferative assay, Assay format B)
Protocol: MV4-11 cells at a confluency of ~50-80% was used for cell growth assay. 600 cells/well in a 384-well opaque cell culture plate (6007680; Perkin Elmer) were seeded in 40 μL of complete medium (IMDM+10% FBS+1X Penicillin-Streptomycin). Cells were incubated overnight at 37° C., 5% CO2. 10 mM DMSO stocks were prepared, cells were treated with 10 concentrations of test compounds starting from 1 uM or 100 nM, 3-fold dilution in 10 uL (5×concentration) of complete medium. Final DMSO concentration was 0.3%. Culture plates were centrifuged at 40×g, 30s. Cells were incubated with compounds for 168 h (7 days). After 7 days, 20 uL CTG 2.0 reagent (G9242; Promega) was added per well and luminescence reading was taken in Envision Xcite 2105 multimode plate reader. Data was analyzed in GraphPad Prism 10.0 and data was shown as % viability with respect to DMSO control and dose-response curves were generated using four parameter logistic regression. Assay quality was determined by z-factor calculation using positive and negative controls.

Compound: CN1CCC[C@@H]1c1cc2cnc(NC(=O)c3ccc(N4CCN(CC5CCN(c6cccc7c6CN([C@@H]6CCC(=O)NC6=O)C7=O)CC5)CC4)cc3)cc2[nH]1 (relative stereo) [Example 118, 4-(4-((1-(2-((rel-R)-2,6-dioxopiperidin-3-yl)-1-oxoisoindolin-4-yl)piperidin-4-yl)methyl)piperazin-1-yl)-N-(2-((R)-1-methylpyrrolidin-2-yl)-1H-pyrrolo[3,2-c]pyridin-6-yl)benzamide]
- MLLT1% Degradation @ 0.01 μM (MLLT1): C (Category C: 25% ≤ C < 50% degradation)
- MLLT1% Degradation @ 0.1 μM (MLLT1): B (Category B: 50% ≤ B < 75% degradation)
- MLLT1% Degradation @ 1 μM (MLLT1): B (Category B: 50% ≤ B < 75% degradation)
- IC50 (MV4-11 cells): ≤ 100 nM

Compound: CN1CCC[C@@H]1c1cc2cnc(NC(=O)c3ccc(C4CCN(C(=O)CC5CCN(c6cccc7c6CN(C6CCC(=O)NC6=O)C7=O)CC5)CC4)cc3)cc2[nH]1 (stereo partly drawn) [Example 107, 4-(1-(2-(1-(2-(2,6-dioxopiperidin-3-yl)-1-oxoisoindolin-4-yl)piperidin-4-yl)acetyl)piperidin-4-yl)-N-(2-((R)-1-methylpyrrolidin-2-yl)-1H-pyrrolo[3,2-c]pyridin-6-yl)benzamide]
- MLLT1% Degradation @ 0.01 μM (MLLT1): B (Category B: 50% ≤ B < 75% degradation)
- MLLT1% Degradation @ 0.1 μM (MLLT1): A (Category A: A ≥ 75% degradation)
- MLLT1% Degradation @ 1 μM (MLLT1): A (Category A: A ≥ 75% degradation)
- IC50 (MV4-11 cells): ≤ 100 nM

Compound: CN1CCC[C@@H]1c1cc2cnc(NC(=O)c3ccc(N4CCC(OCc5ccc(-c6cccc7c6CN(C6CCC(=O)NC6=O)C7=O)cc5)CC4)cc3)cc2[nH]1 (stereo partly drawn) [Example 85, 4-(4-((4-(2-(2,6-dioxopiperidin-3-yl)-1-oxoisoindolin-4-yl)benzyl)oxy)piperidin-1-yl)-N-(2-((R)-1-methylpyrrolidin-2-yl)-1H-pyrrolo[3,2-c]pyridin-6-yl)benzamide]
- MLLT1% Degradation @ 0.01 μM (MLLT1): C (Category C: 25% ≤ C < 50% degradation)
- MLLT1% Degradation @ 0.1 μM (MLLT1): A (Category A: A ≥ 75% degradation)
- MLLT1% Degradation @ 1 μM (MLLT1): B (Category B: 50% ≤ B < 75% degradation)
- IC50 (MV4-11 cells): ≤ 100 nM

Compound: CN1CCC[C@@H]1c1[nH]c2cc(NC(=O)c3ccc(OCCC4CCN(c5cccc6c5CN(C5CCC(=O)NC5=O)C6=O)CC4)cc3)ncc2c1Cl (mixture of isomers) [Example 160, N-(3-chloro-2-((R)-1-methylpyrrolidin-2-yl)-1H-pyrrolo[3,2-c]pyridin-6-yl)-4-(2-(1-(2-(2,6-dioxopiperidin-3-yl)-1-oxoisoindolin-4-yl)piperidin-4-yl)ethoxy)benzamide]
- MLLT1% Degradation @ 0.01 μM (MLLT1): A (Category A: A ≥ 75% degradation)
- MLLT1% Degradation @ 0.1 μM (MLLT1): A (Category A: A ≥ 75% degradation)
- MLLT1% Degradation @ 1 μM (MLLT1): A (Category A: A ≥ 75% degradation)
- IC50 (MV4-11 cells): ≤ 100 nM

Compound: COc1cc(CCCCC#Cc2cccc3c2CN(C2CCC(=O)NC2=O)C3=O)ccc1C(=O)Nc1cc2[nH]c([C@H]3CCCN3C)cc2cn1 (stereo partly drawn) [Example 115, 4-(6-(2-(2,6-dioxopiperidin-3-yl)-1-oxoisoindolin-4-yl)hex-5-yn-1-yl)-2-methoxy-N-(2-((R)-1-methylpyrrolidin-2-yl)-1H-pyrrolo[3,2-c]pyridin-6-yl)benzamide]
- MLLT1% Degradation @ 0.01 μM (MLLT1): A (Category A: A ≥ 75% degradation)
- MLLT1% Degradation @ 0.1 μM (MLLT1): A (Category A: A ≥ 75% degradation)
- MLLT1% Degradation @ 1 μM (MLLT1): A (Category A: A ≥ 75% degradation)
- IC50 (MV4-11 cells): ≤ 100 nM

Compound: CN1CCC[C@@H]1c1cc2cnc(NC(=O)c3ccc(OCCC4CCN(c5cccc6c5CN(C5CCC(=O)NC5=O)C6=O)CC4)c(F)c3)cc2[nH]1 (stereo partly drawn) [Example 206, 4-(2-(1-(2-(2,6-dioxopiperidin-3-yl)-1-oxoisoindolin-4-yl)piperidin-4-yl)ethoxy)-3-fluoro-N-(2-((R)-1-methylpyrrolidin-2-yl)-1H-pyrrolo[3,2-c]pyridin-6-yl)benzamide]
- MLLT1% Degradation @ 0.01 μM (MLLT1): A (Category A: A ≥ 75% degradation)
- MLLT1% Degradation @ 0.1 μM (MLLT1): A (Category A: A ≥ 75% degradation)
- MLLT1% Degradation @ 1 μM (MLLT1): A (Category A: A ≥ 75% degradation)
- IC50 (MV4-11 cells): ≤ 100 nM

Compound: CN1CCC[C@@H]1c1cc2cnc(NC(=O)c3ccc(OCCCC#Cc4cccc5c4CN(C4CCC(=O)NC4=O)C5=O)cc3F)cc2[nH]1 (stereo partly drawn) [Example 213, 4-((5-(2-(2,6-dioxopiperidin-3-yl)-1-oxoisoindolin-4-yl)pent-4-yn-1-yl)oxy)-2-fluoro-N-(2-((R)-1-methylpyrrolidin-2-yl)-1H-pyrrolo[3,2-c]pyridin-6-yl)benzamide]
- MLLT1% Degradation @ 0.01 μM (MLLT1): A (Category A: A ≥ 75% degradation)
- MLLT1% Degradation @ 0.1 μM (MLLT1): A (Category A: A ≥ 75% degradation)
- MLLT1% Degradation @ 1 μM (MLLT1): A (Category A: A ≥ 75% degradation)
- IC50 (MV4-11 cells): ≤ 100 nM

Compound: CN1CCC[C@@H]1c1cc2cnc(NC(=O)c3ccc(N4CCC(COC5CCN(c6cccc7c6CN(C6CCC(=O)NC6=O)C7=O)CC5)CC4)nc3)cc2[nH]1 (stereo partly drawn) [Example 140, 6-(4-(((1-(2-(2,6-dioxopiperidin-3-yl)-1-oxoisoindolin-4-yl)piperidin-4-yl)oxy)methyl)piperidin-1-yl)-N-(2-((R)-1-methylpyrrolidin-2-yl)-1H-pyrrolo[3,2-c]pyridin-6-yl)nicotinamide]
- MLLT1% Degradation @ 0.01 μM (MLLT1): B (Category B: 50% ≤ B < 75% degradation)
- MLLT1% Degradation @ 0.1 μM (MLLT1): A (Category A: A ≥ 75% degradation)
- MLLT1% Degradation @ 1 μM (MLLT1): A (Category A: A ≥ 75% degradation)
- IC50 (MV4-11 cells): ≤ 100 nM

Compound: CN1CCC[C@@H]1c1cc2cnc(NC(=O)c3ccc(OCCc4ccc(-c5cccc6c5CN(C5CCC(=O)NC5=O)C6=O)cc4)cc3F)cc2[nH]1 (stereo partly drawn) [Example 207, 4-(4-(2-(2,6-dioxopiperidin-3-yl)-1-oxoisoindolin-4-yl)phenethoxy)-2-fluoro-N-(2-((R)-1-methylpyrrolidin-2-yl)-1H-pyrrolo[3,2-c]pyridin-6-yl)benzamide]
- MLLT1% Degradation @ 0.01 μM (MLLT1): A (Category A: A ≥ 75% degradation)
- MLLT1% Degradation @ 0.1 μM (MLLT1): A (Category A: A ≥ 75% degradation)
- MLLT1% Degradation @ 1 μM (MLLT1): A (Category A: A ≥ 75% degradation)
- IC50 (MV4-11 cells): ≤ 100 nM

Compound: CN1CCC[C@@H]1c1cc2cnc(NC(=O)c3ccc(OCCCC#Cc4cccc5c4CN(C4CCC(=O)NC4=O)C5=O)nc3)cc2[nH]1 (stereo partly drawn) [Example 150, 6-((5-(2-(2,6-dioxopiperidin-3-yl)-1-oxoisoindolin-4-yl)pent-4-yn-1-yl)oxy)-N-(2-((R)-1-methylpyrrolidin-2-yl)-1H-pyrrolo[3,2-c]pyridin-6-yl)nicotinamide]
- MLLT1% Degradation @ 0.01 μM (MLLT1): A (Category A: A ≥ 75% degradation)
- MLLT1% Degradation @ 0.1 μM (MLLT1): A (Category A: A ≥ 75% degradation)
- MLLT1% Degradation @ 1 μM (MLLT1): A (Category A: A ≥ 75% degradation)
- IC50 (MV4-11 cells): ≤ 100 nM

Compound: CN1CCC[C@@H]1c1cc2cnc(NC(=O)c3ccc(CCCC4CCN(c5cccc6c5CN(C5CCC(=O)NC5=O)C6=O)CC4)cc3)cc2[nH]1 (stereo in doubt) [Example 77, 4-(3-(1-(2-((rel-S)-2,6-dioxopiperidin-3-yl)-1-oxoisoindolin-4-yl)piperidin-4-yl)propyl)-N-(2-((R)-1-methylpyrrolidin-2-yl)-1H-pyrrolo[3,2-c]pyridin-6-yl)benzamide]
- MLLT1% Degradation @ 0.01 μM (MLLT1): A (Category A: A ≥ 75% degradation)
- MLLT1% Degradation @ 0.1 μM (MLLT1): A (Category A: A ≥ 75% degradation)
- MLLT1% Degradation @ 1 μM (MLLT1): A (Category A: A ≥ 75% degradation)
- IC50 (MV4-11 cells): ≤ 100 nM

Compound: CN1CCC[C@@H]1c1cc2cnc(NC(=O)c3ccc(CCCC#Cc4cccc5c4CN(C4CCC(=O)NC4=O)C5=O)cn3)cc2[nH]1 (stereo partly drawn) [Example 197, 5-(5-(2-(2,6-dioxopiperidin-3-yl)-1-oxoisoindolin-4-yl)pent-4-yn-1-yl)-N-(2-((R)-1-methylpyrrolidin-2-yl)-1H-pyrrolo[3,2-c]pyridin-6-yl)picolinamide]
- MLLT1% Degradation @ 0.01 μM (MLLT1): A (Category A: A ≥ 75% degradation)
- MLLT1% Degradation @ 0.1 μM (MLLT1): A (Category A: A ≥ 75% degradation)
- MLLT1% Degradation @ 1 μM (MLLT1): A (Category A: A ≥ 75% degradation)
- IC50 (MV4-11 cells): ≤ 100 nM

From patent US20260191968A1, “PROTAC DEGRADERS OF MLLT1 AND/OR MLLT3” (DARK BLUE THERAPEUTICS LTD, priority 2024, published 2026)
